Like-named read-outs stand apart in the source and are kept apart here.
Columns and labels:
[1] = logP determination by reversed-phase HPLC (C18), EEC Directive 79/831 Annex V.A8; assay type: physicochemical
Alternaria solani = assay: Alternaria test (tomato) / protective; assay type: in vivo; conditions: 500ppm Wirkstoff; protective spray on young tomato plants; evaluated 7 days after inoculation
Source text: Alternaria-Test (Tomate) / protektiv
(§1) Zur Herstellung einer zweckmäßigen Wirkstoffzubereitung vermischt man 1 Gewichtsteil Wirkstoff mit den angegebenen Mengen Lösungsmittel und Emulgator und verdünnt das Konzentrat mit Wasser auf die gewünschte Konzentration.
Zur Prüfung auf protektive Wirksamkeit bespritzt man junge Tomatenpflanzen mit der Wirkstoffzubereitung in der angegebenen Aufwandmenge. 1 Tag nach der Behandlung werden die Pflanzen mit einer Sporensuspension von Alternaria solani inokuliert und stehen dann 24h bei 100% rel. Feuchte und 20°C. Anschließend stehen die Pflanzen bei 96% rel. Luftfeuchtigkeit und einer Temperatur von 20°C.
7 Tage nach der Inokulation erfolgt die Auswertung. Dabei bedeutet 0 % ein Wirkungsgrad, der demjenigen der Kontrolle entspricht, während ein Wirkungsgrad von 100 % bedeutet, dass kein Befall beobachtet wird.

Venturia inaequalis = assay: Venturia test (apple) / protective; assay type: in vivo; conditions: 100ppm Wirkstoff; protective spray on young apple plants; evaluated 10 days after inoculation
Source text: Venturia - Test (Apfel) / protektiv
as §1
Zur Prüfung auf protektive Wirksamkeit werden junge Pflanzen mit der Wirkstoff zubereitung in der angegebenen Aufwandmenge besprüht. Nach Antrocknen des Spritzbelages werden die Pflanzen mit einer wäßrigen Konidiensuspension des Apfelschorferregers Venturia inaequalis inokuliert und verbleiben dann 1 Tag bei ca. 20°C und 100% relativer Luftfeuchtigkeit in einer Inkubations-kabine.
Die Pflanzen werden dann im Gewächshaus bei ca, 21°C und einer relativen Luftfeuchtigkeit von ca. 90% aufgestellt.
10 Tage nach der Inokulation erfolgt die Auswertung. Dabei bedeutet 0% ein Wirkungsgrad, der demjenigen der Kontrolle entspricht, während ein Wirkungsgrad von 100% bedeutet, daß kein Befall beobachtet wird.

[2] = HPLC method of the footnote to Tabelle 1
[3] = reversed-phase c18 hplc, HPLC, 40°C, 0.1% aqueous formic acid / acetonitrile gradient 10% to 95%, read-out: log p

| Structure (SMILES) | logP [1, 2] | chromatographic logP [1, 3] | also measured |
| --- | --- | --- | --- |
| CC(Br)C(=O)c1ccc(Cl)cc1 (stereo not shown) [2-Brom-1-(4-chlorphenyl)propan-1-on] |  |  | chromatographic logP ([1]; reversed-phase c18 hplc, HPLC method of the footnote to Tabelle 1): 3.39 |
| CC1(O)OC(=O)C(c2cccs2)=C1c1ccc(Cl)cc1 (stereo not shown) [4-(4-Chlorphenyl)-5-hydroxy-5-methyl-3-(2-thienyl)furan-2(5H)-on] | 3.05 |  |  |
| Cc1n[nH]c(=O)c(-c2cccn2C)c1-c1ccc(Cl)cc1 [5-(4-Chlorphanyl)-4-(1-Methyl-1H-pyrrol-2-yl)-6-methylpyridazin-3(2H)-on] | 2.45 |  |  |
| Cc1nc(-c2c(-c3ccc(Cl)cc3)c(C)n[nH]c2=O)cs1 [5-(4-Chlorphenyl)-4-(2-methyl-1,3-thiazol-4-yl)-6-methylpyridazin-3(2H)-on] | 2.26 |  |  |
| Cc1n[nH]c(=O)c(-c2cccs2)c1-c1ccc(Cl)cc1 [5-(4-Chlorphenyl)-4-(2-thienyl)-6-methylpyridazin-3(2H)-on] | 2.71 |  |  |
| Cc1n[nH]c(=O)c(-c2nc(Cl)c(Cl)s2)c1-c1ccc(Cl)cc1 [5-(4-Chlorphenyl)-4-(4,5-Dichlor-1,3-thiazol-2-yl)-6-methylpyridazin-3(2H)-on] | 3.94 |  |  |
| Cc1nc(-c2c(Cl)nnc(C)c2-c2ccc(Cl)cc2)cs1 [Beispiel 26] |  | 2.82 |  |
| Cc1nnc(Cl)c(-c2cccn2C)c1-c1ccc(Cl)cc1 [Beispiel 27] |  | 3.24 |  |
| Cc1nnc(Cl)c(-c2nc(Cl)c(Cl)s2)c1-c1ccc(Cl)cc1 [Beispiel 28] |  | 4.32 |  |
| Cc1nnc(Cl)c(-c2cccs2)c1-c1ccc(Cl)cc1 [Beispiel 29, 3-Chlor-5-(4-chlorphenyl)-4-(2-thienyl)-6-methylpyridazin] |  | 3.41 | Wirkungsgrad (Alternaria solani): ≥ 70%; Wirkungsgrad (Venturia inaequalis): ≥ 70%; chromatographic logP ([1]; c18 reversed-phase hplc, HPLC method of the footnote to Tabelle 1): 3.41 |
